Earlier results on one compound are cited in US10076471B2, “Antimicrobial denture” (University of Dammam, priority 2016, dated 2018).

Each structure is given as a SMILES string. Values after ≈ are worked out from the molar mass of the structure shown.

In this data set the test system is Candida. The conditions noted are these: against Candida.

For the compound `COC1=CC(=O)c2ccccc2C1=O` [Lawsone methyl ether, 2-methoxy-1,4-napthoquinone], the minimal fungicidal concentration was 1.25 µg/mL (≈ 6.64 µM).
